Experiments:
redroot pigweed [1] = assay: Test Example 5: herbicidal effect by foliage application, plastic box (Table 20, symbol N); format: in vivo, redroot pigweed (Amaranthus retroflexus); details: 320 g/ha, foliage application after 14-day growth, evaluated three weeks after application
Outline: (§1)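 Post-emergence foliar test in sterilized diluvial soil. Compound applied as water-diluted emulsion at a predetermined rate to 14-day-old plants; evaluation at three weeks.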

velvetleaf [2] = assay: Test Example 4: herbicidal effect by soil treatment (Table 19, symbol M); format: in vivo, velvetleaf (Abutilon theophrasti); details: amount of applied herbicide 320 g/ha
Outline: (§2)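 Emulsion of test compound, water-diluted to predetermined amount, sprayed on soil after sowing (seed depth ~1.5 cm, sterilized diluvial soil). Greenhouse, 25–30° C. Effect graded at three weeks post-spray.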

Italian ryegrass [3] = assay: Test Example 5: herbicidal effect by foliage application, plastic box (Table 20, symbol K); format: in vivo, Italian ryegrass (Lolium multiflorum); details: 320 g/ha, foliage application after 14-day growth, evaluated three weeks after application
Outline: as §1

Italian ryegrass [4] = assay: Test Example 4: herbicidal effect by soil treatment (Table 19, symbol K); format: in vivo, Italian ryegrass (Lolium multiflorum); details: amount of applied herbicide 320 g/ha
Outline: as §2

windgrass [5] = assay: Test Example 4: herbicidal effect by soil treatment (Table 19, symbol L); format: in vivo, windgrass (Apera spica-venti); details: amount of applied herbicide 320 g/ha
Outline: as §2

southern crabgrass [6] = assay: Test Example 5: herbicidal effect by foliage application, plastic box (Table 20, symbol F); format: in vivo, southern crabgrass (Digitaria ciliaris); details: 320 g/ha, foliage application after 14-day growth, evaluated three weeks after application
Outline: as §1

barnyard grass [7] = assay: Test Example 5: herbicidal effect by foliage application, plastic box (Table 20, symbol H); format: in vivo, barnyard grass (Echinochloa crus-galli); details: 320 g/ha, foliage application after 14-day growth, evaluated three weeks after application
Outline: as §1

green foxtail [8] = assay: Test Example 4: herbicidal effect by soil treatment (Table 19, symbol G); format: in vivo, green foxtail (Setaria viridis); details: amount of applied herbicide 320 g/ha
Outline: as §2

Chinese sprangletop = assay: Test Example 3: herbicidal effect by foliage application, Wagner pot (Table 18, symbol D); format: in vivo, chinese sprangletop (Leptochloa chinensis); details: 320 g/ha
Outline: (§3)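 Plants were sown in alluvial soil held under 0.1–0.5 cm standing water and grown 14 days in a greenhouse at 25–30 °C. An emulsifiable formulation, water-diluted to the set dose, was then sprayed onto the foliage, and effects were scored three weeks later using previously defined criteria.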

green foxtail [9] = assay: Test Example 5: herbicidal effect by foliage application, plastic box (Table 20, symbol G); format: in vivo, green foxtail (Setaria viridis); details: 320 g/ha, foliage application after 14-day growth, evaluated three weeks after application
Outline: as §1

persian speedwell [10] = assay: Test Example 5: herbicidal effect by foliage application, plastic box (Table 20, symbol R); format: in vivo, Persian speedwell (Veronica persica); details: 320 g/ha, foliage application after 14-day growth, evaluated three weeks after application
Outline: as §1

wild oat [11] = assay: Test Example 5: herbicidal effect by foliage application, plastic box (Table 20, symbol I); format: in vivo, wild oat (Avena fatua); details: 320 g/ha, foliage application after 14-day growth, evaluated three weeks after application
Outline: as §1

persian speedwell [12] = assay: Test Example 4: herbicidal effect by soil treatment (Table 19, symbol R); format: in vivo, Persian speedwell (Veronica persica); details: amount of applied herbicide 320 g/ha
Outline: as §2

barnyard grass [13] = assay: Test Example 3: herbicidal effect by foliage application, Wagner pot (Table 18, symbol H); format: in vivo, barnyard grass (Echinochloa crus-galli); details: 320 g/ha
Outline: as §3

lambsquarters [14] = assay: Test Example 4: herbicidal effect by soil treatment (Table 19, symbol O); format: in vivo, lambsquarters (Chenopodium album); details: amount of applied herbicide 320 g/ha
Outline: as §2

southern crabgrass [15] = assay: Test Example 4: herbicidal effect by soil treatment (Table 19, symbol F); format: in vivo, southern crabgrass (Digitaria ciliaris); details: amount of applied herbicide 320 g/ha
Outline: as §2

wild oat [16] = assay: Test Example 4: herbicidal effect by soil treatment (Table 19, symbol I); format: in vivo, wild oat (Avena fatua); details: amount of applied herbicide 320 g/ha
Outline: as §2

blackgrass = assay: Test Example 5: herbicidal effect by foliage application, plastic box (Table 20, symbol J); format: in vivo, blackgrass (Alopecurus myosuroides); details: 320 g/ha, foliage application after 14-day growth, evaluated three weeks after application
Outline: as §1

velvetleaf [17] = assay: Test Example 5: herbicidal effect by foliage application, plastic box (Table 20, symbol M); format: in vivo, velvetleaf (Abutilon theophrasti); details: 320 g/ha, foliage application after 14-day growth, evaluated three weeks after application
Outline: as §1

windgrass [18] = assay: Test Example 5: herbicidal effect by foliage application, plastic box (Table 20, symbol L); format: in vivo, windgrass (Apera spica-venti); details: 320 g/ha, foliage application after 14-day growth, evaluated three weeks after application
Outline: as §1

rice flat sedge = assay: Test Example 3: herbicidal effect by foliage application, Wagner pot (Table 18, symbol E); format: in vivo, rice flat sedge (Cyperus iria); details: 320 g/ha
Outline: as §3

redroot pigweed [19] = assay: Test Example 4: herbicidal effect by soil treatment (Table 19, symbol N); format: in vivo, redroot pigweed (Amaranthus retroflexus); details: amount of applied herbicide 320 g/ha
Outline: as §2

lambsquarters [20] = assay: Test Example 5: herbicidal effect by foliage application, plastic box (Table 20, symbol O); format: in vivo, lambsquarters (Chenopodium album); details: 320 g/ha, foliage application after 14-day growth, evaluated three weeks after application
Outline: as §1

barnyard grass [21] = assay: Test Example 4: herbicidal effect by soil treatment (Table 19, symbol H); format: in vivo, barnyard grass (Echinochloa crus-galli); details: amount of applied herbicide 320 g/ha
Outline: as §2

chickweed [22] = assay: Test Example 5: herbicidal effect by foliage application, plastic box (Table 20, symbol P); format: in vivo, common chickweed (Stellaria media); details: 320 g/ha, foliage application after 14-day growth, evaluated three weeks after application
Outline: as §1

chickweed [23] = assay: Test Example 4: herbicidal effect by soil treatment (Table 19, symbol P); format: in vivo, common chickweed (Stellaria media); details: amount of applied herbicide 320 g/ha
Outline: as §2

SMILES | herbicidal effect on N: redroot pigweed (evaluation grade 0-5) (redroot pigweed [1]) | Herbicidal effect by soil treatment, M: velvetleaf (velvetleaf [2]) | herbicidal effect on K: Italian ryegrass (evaluation grade 0-5) (Italian ryegrass [3]) | Herbicidal effect by soil treatment, K: Italian ryegrass (Italian ryegrass [4]) | Herbicidal effect by soil treatment, L: windgrass (windgrass [5]) | herbicidal effect on F: southern crabgrass (evaluation grade 0-5) (southern crabgrass [6]) | herbicidal effect on H: barnyard grass (evaluation grade 0-5) (barnyard grass [7]) | Herbicidal effect by soil treatment, G: green foxtail (green foxtail [8]) | herbicidal effect on Chinese sprangletop (D) (Chinese sprangletop) | herbicidal effect on G: green foxtail (evaluation grade 0-5) (green foxtail [9]) | herbicidal effect on R: persian speedwell (evaluation grade 0-5) (persian speedwell [10]) | herbicidal effect on I: wild oat (evaluation grade 0-5) (wild oat [11]) | Herbicidal effect by soil treatment, R: persian speedwell (persian speedwell [12]) | herbicidal effect on barnyard grass (H) (barnyard grass [13]) | Herbicidal effect by soil treatment, O: lambsquarters (lambsquarters [14]) | Herbicidal effect by soil treatment, F: southern crabgrass (southern crabgrass [15]) | Herbicidal effect by soil treatment, I: wild oat (wild oat [16]) | herbicidal effect on J: blackgrass (evaluation grade 0-5) (blackgrass) | herbicidal effect on M: velvetleaf (evaluation grade 0-5) (velvetleaf [17]) | herbicidal effect on L: windgrass (evaluation grade 0-5) (windgrass [18]) | further results
COc1ccccc1-c1sc2cc(OS(=O)(=O)C(F)(F)F)ccc2c1-c1c(O)c(C)nn(C)c1=O [3-161] | 4 (Herbicidal rate of 70% or more and less than 90%) | 0 (Herbicidal rate of 5% or less (almost no effect)) | 4 (Herbicidal rate of 70% or more and less than 90%) | 0 (Herbicidal rate of 5% or less (almost no effect)) | 0 (Herbicidal rate of 5% or less (almost no effect)) | 0 (Herbicidal rate of 5% or less (almost no effect)) | 3 (Herbicidal rate of 40% or more and less than 70%) | 0 (Herbicidal rate of 5% or less (almost no effect)) | 3 (Herbicidal rate of 40% or more and less than 70%) | 3 (Herbicidal rate of 40% or more and less than 70%) | 5 (Herbicidal rate of 90% or more (almost completely withered)) | 0 (Herbicidal rate of 5% or less (almost no effect)) | 0 (Herbicidal rate of 5% or less (almost no effect)) | 5 (Herbicidal rate of 90% or more (almost completely withered)) | 0 (Herbicidal rate of 5% or less (almost no effect)) | 0 (Herbicidal rate of 5% or less (almost no effect)) | 0 (Herbicidal rate of 5% or less (almost no effect)) | 4 (Herbicidal rate of 70% or more and less than 90%) | 2 (Herbicidal rate of 20% or more and less than 40%) | 4 (Herbicidal rate of 70% or more and less than 90%) | herbicidal effect on rice flat sedge (E) (rice flat sedge): 3 (Herbicidal rate of 40% or more and less than 70%); Herbicidal effect by soil treatment, N: redroot pigweed (redroot pigweed [19]): 4 (Herbicidal rate of 70% or more and less than 90%); herbicidal effect on O: lambsquarters (evaluation grade 0-5) (lambsquarters [20]): 3 (Herbicidal rate of 40% or more and less than 70%); Herbicidal effect by soil treatment, H: barnyard grass (barnyard grass [21]): 0 (Herbicidal rate of 5% or less (almost no effect)); herbicidal effect on P: chickweed (evaluation grade 0-5) (chickweed [22]): 5 (Herbicidal rate of 90% or more (almost completely withered)); Herbicidal effect by soil treatment, P: chickweed (chickweed [23]): 0 (Herbicidal rate of 5% or less (almost no effect))
Cc1nn(C)c(=O)c(-c2c(-c3ccc(OC(F)F)cc3)sc3c(F)cccc23)c1O [4-046] | 5 (Herbicidal rate of 90% or more (almost completely withered)) | 3 (Herbicidal rate of 40% or more and less than 70%) | 5 (Herbicidal rate of 90% or more (almost completely withered)) | 3 (Herbicidal rate of 40% or more and less than 70%) | 0 (Herbicidal rate of 5% or less (almost no effect)) | 0 (Herbicidal rate of 5% or less (almost no effect)) | 5 (Herbicidal rate of 90% or more (almost completely withered)) | 3 (Herbicidal rate of 40% or more and less than 70%) | 1 (Herbicidal rate of 5% or more and less than 20%) | 5 (Herbicidal rate of 90% or more (almost completely withered)) | 5 (Herbicidal rate of 90% or more (almost completely withered)) | 4 (Herbicidal rate of 70% or more and less than 90%) | 5 (Herbicidal rate of 90% or more (almost completely withered)) | 5 (Herbicidal rate of 90% or more (almost completely withered)) | 1 (Herbicidal rate of 5% or more and less than 20%) | 0 (Herbicidal rate of 5% or less (almost no effect)) | 0 (Herbicidal rate of 5% or less (almost no effect)) | 4 (Herbicidal rate of 70% or more and less than 90%) | 5 (Herbicidal rate of 90% or more (almost completely withered)) | 5 (Herbicidal rate of 90% or more (almost completely withered)) | herbicidal effect on rice flat sedge (E) (rice flat sedge): 5 (Herbicidal rate of 90% or more (almost completely withered)); Herbicidal effect by soil treatment, N: redroot pigweed (redroot pigweed [19]): 5 (Herbicidal rate of 90% or more (almost completely withered)); herbicidal effect on O: lambsquarters (evaluation grade 0-5) (lambsquarters [20]): 5 (Herbicidal rate of 90% or more (almost completely withered)); Herbicidal effect by soil treatment, H: barnyard grass (barnyard grass [21]): 3 (Herbicidal rate of 40% or more and less than 70%); herbicidal effect on P: chickweed (evaluation grade 0-5) (chickweed [22]): 5 (Herbicidal rate of 90% or more (almost completely withered)); Herbicidal effect by soil treatment, P: chickweed (chickweed [23]): 3 (Herbicidal rate of 40% or more and less than 70%)

Source: US20230085307A1, “PYRIDAZINONE COMPOUND AND HERBICIDE” (NISSAN CHEMICAL CORPORATION, priority 2019, published 2023)
